PubChem BioAssay AID330 (DTP/NCI, 2004)
Several values for one entry are separate records, joined by “and”; a condition that tells them apart may be missing. Equal entries are not always repeated. Inconclusive results and toxic doses are left out.

System: P388 leukemia ip, CD2F1 mice, survival T/C
Experiment: NCI In Vivo Anticancer Drug Screen. Data for tumor model P388 Leukemia (intraperitoneal) in CD2F1 (CDF1) mice
Details: endpoint: median survival time, higher = longer survival
How it was run: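 Mice carrying the transplanted tumor received test compound or vehicle. Survival was recorded in each group, and the value is the treated-group measurement divided by that of the vehicle-treated control group.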

[1] = dose: 100.0 mg/kg/injection, schedule: Q01DX009 (ip), vehicle: saline with Tween-80
[2] = dose: 200.0 mg/kg/injection, schedule: Q01DX009 (ip), vehicle: saline with Tween-80
[3] = dose: 50.0 mg/kg/injection, schedule: Q01DX009 (ip), vehicle: saline with Tween-80
[4] = dose: 50.0 mg/kg/injection, schedule: Q01DX005 (ip), vehicle: saline with Tween-80
[5] = dose: 100.0 mg/kg/injection, schedule: Q01DX005 (ip), vehicle: saline with Tween-80
[6] = dose: 200.0 mg/kg/injection, schedule: Q01DX005 (ip), vehicle: saline with Tween-80
[7] = dose: 60.0 mg/kg/injection, schedule: Q01DX005 (ip), vehicle: saline with Tween-80
[8] = dose: 120.0 mg/kg/injection, schedule: Q01DX005 (ip), vehicle: saline with Tween-80
[9] = dose: 240.0 mg/kg/injection, schedule: Q01DX005 (ip), vehicle: saline with Tween-80

## Nc1ccccc1SC1CC(=O)N(c2ccc(Cl)cc2)C1=O (stereo unspecified)
[1]
  T/C: 105 % of control
[2]
  T/C: 110 % of control
dose: 400.0 mg/kg/injection, schedule: Q01DX009 (ip), vehicle: saline with Tween-80
  T/C: 100 % of control

## NCC(=O)NCC(=O)NC(CCCN=C(N)N)C(=O)O (stereo unspecified)
dose: 50.0 mg/kg/injection, schedule: Q01DX005 (ip), vehicle: saline
  T/C: 100 % of control
dose: 100.0 mg/kg/injection, schedule: Q01DX005 (ip), vehicle: saline
  T/C: 103 % of control
dose: 200.0 mg/kg/injection, schedule: Q01DX005 (ip), vehicle: saline
  T/C: 99 % of control

## CN(C)c1ccc(C=Nc2ccc(OCCCCCCCCCCC(=O)O)cc2)cc1
[3]
  T/C: 93 % of control
[1]
  T/C: 88 % of control
[2]
  T/C: 90 % of control

## COc1c2ccc(OCC=C(C)C)cc2nc2occc12
dose: 7.0 mg/kg/injection, schedule: Q01DX005 (ip), vehicle: Klucel + Tween-80
  T/C: 106 % of control
dose: 14.0 mg/kg/injection, schedule: Q01DX005 (ip), vehicle: Klucel + Tween-80
  T/C: 103 % of control
dose: 28.0 mg/kg/injection, schedule: Q01DX005 (ip), vehicle: Klucel + Tween-80
  T/C: 99 % of control
dose: 56.0 mg/kg/injection, schedule: Q01DX005 (ip), vehicle: Klucel + Tween-80
  T/C: 103 % of control

## CC(C)CNC1=CC(=O)c2ccccc2C1=O
dose: 50.0 mg/kg/injection, schedule: Q04DX003 (ip), vehicle: saline with Tween-80
  T/C: 106 % of control
dose: 100.0 mg/kg/injection, schedule: Q04DX003 (ip), vehicle: saline with Tween-80
  T/C: 108 % of control
dose: 200.0 mg/kg/injection, schedule: Q04DX003 (ip), vehicle: saline with Tween-80
  T/C: 92 % of control

## C=CC(Br)CCCBr (stereo unspecified)
dose: 12.5 mg/kg/injection, schedule: Q04DX002 (ip), vehicle: saline with Tween-80
  T/C: 106 % of control
dose: 25.0 mg/kg/injection, schedule: Q04DX002 (ip), vehicle: saline with Tween-80
  T/C: 112 % of control
dose: 50.0 mg/kg/injection, schedule: Q04DX002 (ip), vehicle: saline with Tween-80
  T/C: 101 % of control
dose: 100.0 mg/kg/injection, schedule: Q04DX002 (ip), vehicle: saline with Tween-80
  T/C: 104 % of control

## CN(C)c1ccc(/C=N/NC(=O)CNC(=O)n2ccnc2)cc1
[4]
  T/C: 99 % of control
[5]
  T/C: 94 % of control
[6]
  T/C: 94 % of control

## N#Cc1c(=O)n(O)c2ccccc2[n+]1[O-]
dose: 25.0 mg/kg/injection, schedule: Q01DX005 (ip), vehicle: saline with Tween-80
  T/C: 94 % of control
[4]
  T/C: 97 % of control
[5]
  T/C: 106 % of control
[6]
  T/C: 102 % of control
dose: 400.0 mg/kg/injection, schedule: Q01DX005 (ip), vehicle: saline with Tween-80
  T/C: 93 % of control

## CSC(=Nc1ccc(N(C)C)cc1)NC#N
dose: 50.0 mg/kg/injection, schedule: Q01DX009 (ip), vehicle: Klucel (hydroxypropylcellulose) (HPC)
  T/C: 106 % of control
dose: 100.0 mg/kg/injection, schedule: Q01DX009 (ip), vehicle: Klucel (hydroxypropylcellulose) (HPC)
  T/C: 103 % of control
dose: 200.0 mg/kg/injection, schedule: Q01DX009 (ip), vehicle: Klucel (hydroxypropylcellulose) (HPC)
  T/C: 92 % of control

## CCOC(=O)Nc1cc2c(c(N)n1)N=C(c1ccc(C)cc1C)CN2
dose: 5.0 mg/kg/injection, schedule: Q01DX005 (ip), vehicle: saline with Tween-80
  T/C: 109 % of control
dose: 10.0 mg/kg/injection, schedule: Q01DX005 (ip), vehicle: saline with Tween-80
  T/C: 115 % of control
dose: 20.0 mg/kg/injection, schedule: Q01DX005 (ip), vehicle: saline with Tween-80
  T/C: 123 % of control

## ClCCN(CCN(CCCl)c1cccc2ccccc12)c1cccc2ccccc12
dose: 50.0 mg/kg/injection, schedule: Q04DX003 (ip), vehicle: Klucel (hydroxypropylcellulose) (HPC)
  T/C: 104 % of control
dose: 100.0 mg/kg/injection, schedule: Q04DX003 (ip), vehicle: Klucel (hydroxypropylcellulose) (HPC)
  T/C: 103 % of control
dose: 200.0 mg/kg/injection, schedule: Q04DX003 (ip), vehicle: Klucel (hydroxypropylcellulose) (HPC)
  T/C: 107 % of control

## N#CCCN(CCC#N)c1ccc(CC2C(=O)N(c3cccc(S(=O)(=O)O)c3)N=C2C(=O)O)cc1 (stereo unspecified)
[7]
  T/C: 93 % of control
[8]
  T/C: 96 % of control
[9]
  T/C: 95 % of control

## O=C(O)c1nn(Cc2ccc(Br)cc2Br)c2ccccc12
dose: 100.0 mg/kg/injection, schedule: Q01DX001 (ip), vehicle: saline with Tween-80
  T/C: 114 % of control
dose: 200.0 mg/kg/injection, schedule: Q01DX001 (ip), vehicle: saline with Tween-80
  T/C: 104 % of control
dose: 400.0 mg/kg/injection, schedule: Q01DX001 (ip), vehicle: saline with Tween-80
  T/C: 114 % of control

## C/C(=N\N=C(N)N)c1ccccc1
dose: 6.25 mg/kg/injection, schedule: Q01DX009 (ip), vehicle: saline
  T/C: 110 % of control
dose: 12.5 mg/kg/injection, schedule: Q01DX009 (ip), vehicle: saline
  T/C: 101 % of control

## COC(=O)[C@@]12OC[C@]34[C@H]([C@@H](O)[C@@H]1O)[C@@]1(C)CC(=O)C(O)=C(C)[C@@H]1C[C@H]3OC(=O)[C@H](OC(=O)/C=C(/C)C(C)(C)O)[C@@H]24
dose: 0.25 mg/kg/injection, schedule: Q01DX009 (ip), vehicle: saline + alcohol
  T/C: 113 % of control and 115 % of control
dose: 0.5 mg/kg/injection, schedule: Q01DX009 (ip), vehicle: saline + alcohol
  T/C: 115 % of control (2×) and 124 % of control
dose: 8.0 mg/kg/injection, schedule: Q01DX009 (ip), vehicle: saline + alcohol
  T/C: 162 % of control

## COC(C(=O)C(O)C(C)O)C1CC2C=C3C=C(OC4CC(OC5CC(O)C(OC)C(C)O5)C(OC(C)=O)C(C)O4)C(C)C(=O)C3=C(O)C2=C(O)C1OC1CC(OC2CC(OC3CC(C)(O)C(O)C(C)O3)C(O)C(C)O2)C(O)C(C)O1 (stereo unspecified)
dose: 0.25 mg/kg/injection, schedule: Q01DX001 (ip), vehicle: water
  T/C: 110 % of control
dose: 0.5 mg/kg/injection, schedule: Q01DX001 (ip), vehicle: water
  T/C: 112 % of control
dose: 1.0 mg/kg/injection, schedule: Q01DX001 (ip), vehicle: water
  T/C: 118 % of control
dose: 2.0 mg/kg/injection, schedule: Q01DX001 (ip), vehicle: water
  T/C: 124 % of control
dose: 8.0 mg/kg/injection, schedule: Q01DX001 (ip), vehicle: water
  T/C: 154 % of control

## C=CS(=O)(=NN1C(=O)c2ccccc2C1=O)c1ccc(C)cc1 (stereo unspecified)
dose: 6.25 mg/kg/injection, schedule: Q01DX001 (ip), vehicle: Klucel (hydroxypropylcellulose) (HPC)
  T/C: 95 % of control
dose: 12.5 mg/kg/injection, schedule: Q01DX001 (ip), vehicle: Klucel (hydroxypropylcellulose) (HPC)
  T/C: 98 % of control
dose: 25.0 mg/kg/injection, schedule: Q01DX001 (ip), vehicle: Klucel (hydroxypropylcellulose) (HPC)
  T/C: 104 % of control and 95 % of control
dose: 50.0 mg/kg/injection, schedule: Q01DX001 (ip), vehicle: Klucel (hydroxypropylcellulose) (HPC)
  T/C: 101 % of control and 104 % of control
dose: 100.0 mg/kg/injection, schedule: Q01DX001 (ip), vehicle: Klucel (hydroxypropylcellulose) (HPC)
  T/C: 106 % of control and 113 % of control

## O=C(NC(=O)C(F)(F)C(F)(F)C(F)(F)F)Nc1cccc(F)c1
[3]
  T/C: 100 % of control
[1]
  T/C: 100 % of control
[2]
  T/C: 100 % of control

## O=P(c1ccccc1)(c1ccccc1)c1ccccc1.O=P(c1ccccc1)(c1ccccc1)c1ccccc1.O=S(=O)(O)O.[Ni]
dose: 6.25 mg/kg/injection, schedule: Q01DX009 (ip), vehicle: Klucel (hydroxypropylcellulose) (HPC)
  T/C: 99 % of control
dose: 12.5 mg/kg/injection, schedule: Q01DX009 (ip), vehicle: Klucel (hydroxypropylcellulose) (HPC)
  T/C: 111 % of control
dose: 25.0 mg/kg/injection, schedule: Q01DX009 (ip), vehicle: Klucel (hydroxypropylcellulose) (HPC)
  T/C: 107 % of control

## COP(=S)(NC(C)C)Oc1ccc(C)cc1[N+](=O)[O-] (stereo unspecified)
[3]
  T/C: 98 % of control
[1]
  T/C: 100 % of control
[2]
  T/C: 90 % of control

## O=C1c2cc3c(cc2C(=O)c2ncccc21)CCCC3
[4]
  T/C: 98 % of control
[5]
  T/C: 86 % of control
[6]
  T/C: 89 % of control

## O=c1[nH]c(N[N+](=O)[O-])nc(-c2ccccc2)c1Br
[7]
  T/C: 98 % of control
[8]
  T/C: 100 % of control
[9]
  T/C: 99 % of control

## C[N+](C)(C)CC(=O)NNC(=O)CCn1[nH]c(=O)c(Cl)c(Cl)c1=O
[7]
  T/C: 104 % of control
[8]
  T/C: 99 % of control
[9]
  T/C: 97 % of control
